In patent publication US8192962B2, “Processes for detecting toxic substances” (Daikin Industries, Ltd., priority 2001, dated 2012):

Test system: Detoxification protein genes
Assay: DNA chip mRNA expression in yeast, detoxification protein genes (Table 8)
Assay type: cell-based, Saccharomyces cerevisiae S288C
Description: Yeast (Saccharomyces cerevisiae S288C (α SUC2mal mel gap2 CUP1)) were incubated at 25° C. on YPD medium (yeast extract 1%, polypepton 2%, glucose 2%). One of toxic chemical substances was added to the cells at logarithmic growth phase, and the cells were further incubated for two hours. Cells were cultured without any chemical substance in the same condition, and were used as control. Concentrations of the chemical substances were defined to inhibit the growth of the yeast but not lead to death.
After completion of the incubation, the culture was centrifuged to collect the cells. To the cells, sodium acetate buffer (50 mM sodium acetate, 10 mM EDTA, 1% SDS) was added, and the mixture was shaken at 65° C. for five minutes, followed by returning to room temperature, and obtaining the supernatant, of which the procedures were repeated two times. To the supernatant, ½ amount of a solution of phenol/chloroform was added, and the mixture was centrifuged to give a supernatant, which was added with an equal amount of chloroform, and the mixture was centrifuged to give a supernatant. To the supernatant, an equal amount of isopropanol containing 0.3 M sodium acetate was added, and the mixture was allowed to stand at room temperature for 30 minutes, after which the mixture was centrifuged to give a sediment of the whole RNAs. Seventy % ethanol was added to the sediment, and the mixture was again centrifuged to give a sediment, which was then dried and dissolved in water. mRNA was isolated from the whole RNAs as followings. In view of the fact that a poly A chain is attached to the 3′ terminus of mRNA, a polynucleotide having a poly T structure which was immobilized on the surface of latex beads was used to trap the mRNA, and then the mRNA was washed and eluted with spine column (Oligotex-dT30<Super>mRNA Purification Kit, Takara). Reverse transcription of the mRNA was conducted with a reverse transcriptase (Super Script II Reverse Transcriptase; catalogue No. 18064-014, GibcoBRL) using fluorescence-labeled nucleotides to give cDNAs that were introduced with Cy3-dUTP or Cy5-dUTP during the reverse transcription.
The labeled cDNAs were dissolved in TE buffer (10mM Tris-HCl/1 mM EDTA, pH8.0), and the solution was dropped on the DNA chip containing the whole genes of yeast (DNA Chip Research Inc. Japan) so that the cDNAs were hybridized on the DNA chip at 65° C. for over 12 hours. The fluoresces intensity of the DNA chip was read with a scanner, and the ratio relative to the fluorescence intensity resulting from the absence of chemical substance was estimated as the following, which is shown in Tables 1 to 9: […]

Cl[C@H]1[C@H](Cl)[C@@H](Cl)[C@@H](Cl)[C@H](Cl)[C@H]1Cl [(7), γ-hexachlorocyclohexane]
The level of expressed mRNA in the presence of chemical substance/The level of expressed mRNA in the absence of chemical substance (yeast gene YBL064C): 2.5 | The level of expressed mRNA in the presence of chemical substance/The level of expressed mRNA in the absence of chemical substance (yeast gene YBR008C): 0.9 | The level of expressed mRNA in the presence of chemical substance/The level of expressed mRNA in the absence of chemical substance (yeast gene YBR145W): 58.8 | The level of expressed mRNA in the presence of chemical substance/The level of expressed mRNA in the absence of chemical substance (yeast gene YBR244W): 0.6 | The level of expressed mRNA in the presence of chemical substance/The level of expressed mRNA in the absence of chemical substance (yeast gene YBR293W): 0.9 | The level of expressed mRNA in the presence of chemical substance/The level of expressed mRNA in the absence of chemical substance (yeast gene YCL035C): 2.7 | The level of expressed mRNA in the presence of chemical substance/The level of expressed mRNA in the absence of chemical substance (yeast gene YCL069W): 1.4 | The level of expressed mRNA in the presence of chemical substance/The level of expressed mRNA in the absence of chemical substance (yeast gene YCR083W): 1.8 | The level of expressed mRNA in the presence of chemical substance/The level of expressed mRNA in the absence of chemical substance (yeast gene YDL100C): 1.6 | The level of expressed mRNA in the presence of chemical substance/The level of expressed mRNA in the absence of chemical substance (yeast gene YDL168W): 1.1 | The level of expressed mRNA in the presence of chemical substance/The level of expressed mRNA in the absence of chemical substance (yeast gene YDR256C): 0.6 | The level of expressed mRNA in the presence of chemical substance/The level of expressed mRNA in the absence of chemical substance (yeast gene YDR453C): 1.0 | The level of expressed mRNA in the presence of chemical substance/The level of expressed mRNA in the absence of chemical substance (yeast gene YDR513W): 1.6 | The level of expressed mRNA in the presence of chemical substance/The level of expressed mRNA in the absence of chemical substance (yeast gene YDR538W): 1.2 | The level of expressed mRNA in the presence of chemical substance/The level of expressed mRNA in the absence of chemical substance (yeast gene YEL027W): 0.8 | The level of expressed mRNA in the presence of chemical substance/The level of expressed mRNA in the absence of chemical substance (yeast gene YEL065W): 4.3 | The level of expressed mRNA in the presence of chemical substance/The level of expressed mRNA in the absence of chemical substance (yeast gene YER185W): 1.1 | The level of expressed mRNA in the presence of chemical substance/The level of expressed mRNA in the absence of chemical substance (yeast gene YFL050C): 0.8 | The level of expressed mRNA in the presence of chemical substance/The level of expressed mRNA in the absence of chemical substance (yeast gene YGL013C): 0.9 | The level of expressed mRNA in the presence of chemical substance/The level of expressed mRNA in the absence of chemical substance (yeast gene YGL254W): 1.3 | The level of expressed mRNA in the presence of chemical substance/The level of expressed mRNA in the absence of chemical substance (yeast gene YGR088W): 0.8 | The level of expressed mRNA in the presence of chemical substance/The level of expressed mRNA in the absence of chemical substance (yeast gene YGR138C): 0.7 | The level of expressed mRNA in the presence of chemical substance/The level of expressed mRNA in the absence of chemical substance (yeast gene YGR197C): 1.3 | The level of expressed mRNA in the presence of chemical substance/The level of expressed mRNA in the absence of chemical substance (yeast gene YGR209C): 1.7 | The level of expressed mRNA in the presence of chemical substance/The level of expressed mRNA in the absence of chemical substance (yeast gene YGR224W): 0.4 | The level of expressed mRNA in the presence of chemical substance/The level of expressed mRNA in the absence of chemical substance (yeast gene YHL040C): 4.0 | The level of expressed mRNA in the presence of chemical substance/The level of expressed mRNA in the absence of chemical substance (yeast gene YHL047C): 16.8 | The level of expressed mRNA in the presence of chemical substance/The level of expressed mRNA in the absence of chemical substance (yeast gene YHR008C): 0.7 | The level of expressed mRNA in the presence of chemical substance/The level of expressed mRNA in the absence of chemical substance (yeast gene YHR048W): 0.8 | The level of expressed mRNA in the presence of chemical substance/The level of expressed mRNA in the absence of chemical substance (yeast gene YHR053C): 1.2 | The level of expressed mRNA in the presence of chemical substance/The level of expressed mRNA in the absence of chemical substance (yeast gene YHR055C): 1.1 | The level of expressed mRNA in the presence of chemical substance/The level of expressed mRNA in the absence of chemical substance (yeast gene YIR002C): 1.3 | The level of expressed mRNA in the presence of chemical substance/The level of expressed mRNA in the absence of chemical substance (yeast gene YIR038C): 2.0 | The level of expressed mRNA in the presence of chemical substance/The level of expressed mRNA in the absence of chemical substance (yeast gene YJL101C): 1.0 | The level of expressed mRNA in the presence of chemical substance/The level of expressed mRNA in the absence of chemical substance (yeast gene YJR104C): 1.1 | The level of expressed mRNA in the presence of chemical substance/The level of expressed mRNA in the absence of chemical substance (yeast gene YKL026C): 2.5 | The level of expressed mRNA in the presence of chemical substance/The level of expressed mRNA in the absence of chemical substance (yeast gene YKL064W): 1.1 | The level of expressed mRNA in the presence of chemical substance/The level of expressed mRNA in the absence of chemical substance (yeast gene YKR066C): 0.5 | The level of expressed mRNA in the presence of chemical substance/The level of expressed mRNA in the absence of chemical substance (yeast gene YKR105C): 1.0 | The level of expressed mRNA in the presence of chemical substance/The level of expressed mRNA in the absence of chemical substance (yeast gene YKR106W): 0.9 | The level of expressed mRNA in the presence of chemical substance/The level of expressed mRNA in the absence of chemical substance (yeast gene YLL028W): 1.0 | The level of expressed mRNA in the presence of chemical substance/The level of expressed mRNA in the absence of chemical substance (yeast gene YLL057C): 1.6 | The level of expressed mRNA in the presence of chemical substance/The level of expressed mRNA in the absence of chemical substance (yeast gene YLL060C): 2.0 | The level of expressed mRNA in the presence of chemical substance/The level of expressed mRNA in the absence of chemical substance (yeast gene YLR043C): 2.6 | The level of expressed mRNA in the presence of chemical substance/The level of expressed mRNA in the absence of chemical substance (yeast gene YLR046C): 1.5 | The level of expressed mRNA in the presence of chemical substance/The level of expressed mRNA in the absence of chemical substance (yeast gene YML028W): 0.8 | The level of expressed mRNA in the presence of chemical substance/The level of expressed mRNA in the absence of chemical substance (yeast gene YML116W): 1.4 | The level of expressed mRNA in the presence of chemical substance/The level of expressed mRNA in the absence of chemical substance (yeast gene YMR015C): 0.4 | The level of expressed mRNA in the presence of chemical substance/The level of expressed mRNA in the absence of chemical substance (yeast gene YMR038C): 1.1 | The level of expressed mRNA in the presence of chemical substance/The level of expressed mRNA in the absence of chemical substance (yeast gene YNL239W): 2.1 | The level of expressed mRNA in the presence of chemical substance/The level of expressed mRNA in the absence of chemical substance (yeast gene YNL241C): 3.2 | The level of expressed mRNA in the presence of chemical substance/The level of expressed mRNA in the absence of chemical substance (yeast gene YNL259C): 3.8 | The level of expressed mRNA in the presence of chemical substance/The level of expressed mRNA in the absence of chemical substance (yeast gene YOL158C): 1.6 | The level of expressed mRNA in the presence of chemical substance/The level of expressed mRNA in the absence of chemical substance (yeast gene YOR031W): 1.3 | The level of expressed mRNA in the presence of chemical substance/The level of expressed mRNA in the absence of chemical substance (yeast gene YOR153W): 2.6 | The level of expressed mRNA in the presence of chemical substance/The level of expressed mRNA in the absence of chemical substance (yeast gene YOR247W): 0.5 | The level of expressed mRNA in the presence of chemical substance/The level of expressed mRNA in the absence of chemical substance (yeast gene YOR251C): 1.0 | The level of expressed mRNA in the presence of chemical substance/The level of expressed mRNA in the absence of chemical substance (yeast gene YOR273C): 0.4 | The level of expressed mRNA in the presence of chemical substance/The level of expressed mRNA in the absence of chemical substance (yeast gene YPL163C): 0.4 | The level of expressed mRNA in the presence of chemical substance/The level of expressed mRNA in the absence of chemical substance (yeast gene YPR200C): 1.3
